Data as given in article PMC10226041, “Discovery of Ruthenium(II) Metallocompound and Olaparib Synergy for Cancer Combination Therapy” (Journal of Medicinal Chemistry, 2023).
Structures can show the parent of a compound that is named as a salt. Values belong to the compound of their own block, whether it stands above or below them.

Assays:
[1] = tested on: wild-type zebrafish (Danio rerio) embryos; details: in vivo
Description: Wild-type zebrafish embryos were obtained from breeding facilities at Danio Assay Laboratories Sdn.Bhd. (Universiti Putra Malaysia). […] Danio-SprintM embryo media were used as a control. Survival and hatching rates were observed under a microscope attached with a digital camera and imaged at 24, 48, 72, and 96 hpf. […] Four lethal endpoints were evaluated including coagulated embryos, lack of somite formation, non-detachment of the tail, and lack of heartbeat. All these characteristics were recorded every 24 hpf, except the heartbeat, which is visible after 48 hpf.

MDA-MB-231 cells [2] = assay: Drug interaction analysis (Chou and Talalay combination index) with Olaparib from MTT data; format: cell-based, human; details: MDA-MB-231, Olaparib 10 μM, result in words
Description: (§1) Following treatment, solutions were removed, thiazolyl blue tetrazolium bromide (MTT, 0.5 mg/mL) reagent was added to the cells, and plates were incubated for 4 h. The reduced purple formazan crystals were solubilized with 100 μL of DMSO, and the absorbance at 570 nm (620 nm as reference wavelength) was measured using a microplate reader. The average in percent reduction of cell viability was expressed relative to untreated control cells. The combinatorial effect was evaluated by the generation of the compound dose–response curve and a shift of the IC50 value in the presence or absence of Olaparib (graphed and calculated using GraphPad Prism software).
Dose–effect curves for single agents and their combinations were generated from the MTT assay data, and the combination index (CI) values were calculated using CalcuSyn and CompuSyn software (Biosoft, Cambridge, UK) as established by Chou and Talalay.[43] CI < 0.9 indicates synergism, CI = 0.9–1.0 indicates additive, and CI > 1 indicates antagonism. GraphPad Prism Software was used to generate a 3-color scale based on CI values obtained, where synergism is represented by green, additive by yellow, and antagonism by red. The colors of each CI value were interpolated in between these constraints accordingly.

MDA-MB-231 cells [3] = assay: MTT cell viability assay, MDA-MB-231 cells; format: cell-based, human; details: for IC50 / fold shift = IC50 (−OLAP)/IC50 (+OLAP): MDA-MB-231, 72 h; for IC50: MTT, read-out: IC50, –OLAP (compound alone); for fold shift = IC50 (−OLAP)/IC50 (+OLAP): Olaparib 10 μM
Description: as §1

MCF7 cells [4] = assay: MTT cell viability assay, MCF7 cells; format: cell-based, human; details: for IC50: Homo sapiens, MCF7, 72 h, MTT, single agent, read-out: IC50 MCF7, –OLAP (single agent)
Description: as §1, with “Cells were seeded at 5 × 10^3 cells/well for MCF7 cells and 1 × 10^4 cells/well for MDA-MB-231 and MCF10A cells, respectively, in 96-well plates, allowed to adhere for 24 h, and treated as described in the main text. Following” for “Following”

[5] = tested on: MDA-MB-231 3D tumor spheroids; assay: Spheroid growth inhibition, MDA-MB-231 spheroids; format: cell-based, human; details: compound 1 μM in combination with Olaparib 10 μM
Description: (§2) Spheroids were grown as described initially. […] Spheroids were treated with the identified combinations and single drugs alone for 72 h. Every other day thereafter, 50% of the treatment-containing medium was replaced. Spheroids were imaged every three days for a period of 12 days using a microscope attached to a digital camera. The structural integrity of spheroids following treatments was observed, and the volume was measured as initially described.

MDA-MB-231R cells = assay: Clonogenic survival assay, Olaparib-resistant MDA-MB-231R cells; format: cell-based, human
Description: The Olaparib-resistant MDA-MB-231 cell line (MDA-MB-231R) was developed from the parental MDA-MB-231 cell line by long-term drug exposure (∼8 months, 10–100 μM Olaparib) in a similar manner described by Kim et al.[45] MDA-MB-231 cells were seeded at a density of 1.5 × 10^5 cells in a 25 cm^2 flask and allowed to adhere for 24 h. Cells were treated with a starting Olaparib concentration of 10 μM, and treatments were refreshed every 3 days. After each week, the confluency was assessed: if confluency is <50%, the treatment was stopped; if confluency is at 50–70%, the treatment was maintained; and if confluency is over 70%, a portion of the cells was frozen. When the cells adapted to a new drug concentration, cells were reseeded at a density of 1.5 × 10^5 cells in a new 25 cm^2 flask and allowed to adhere before the next exposure to the increased concentration of Olaparib. This procedure was repeated to achieve a final concentration of Olaparib of 100 μM. Following this, MDA-MB-231R cells were maintained in a low concentration of Olaparib (10 μM) to preserve resistance. […]
Cells were seeded at 1 × 10^3 cells/well in 6-well plates, allowed to adhere for 24 h, and treated as described in the main text. […] Individual colonies were counted using ImageJ software, and the survival fraction was determined (normalized to controls).

MCF10A cells = assay: MTT cell viability assay, MCF10A normal breast cells; format: cell-based; details: Homo sapiens, MCF-10A, 72 h, single agent, read-out: IC50 MCF10A, –OLAP (single agent)
Description: as §1, with “Cells were seeded at 5 × 10^3 cells/well for MCF7 cells and 1 × 10^4 cells/well for MDA-MB-231 and MCF10A cells, respectively, in 96-well plates, allowed to adhere for 24 h, and treated as described in the main text. Following” for “Following”

MCF7 3D tumor spheroids = assay: Spheroid growth inhibition, MCF7 spheroids; format: cell-based, human; details: compound 1 μM in combination with Olaparib 10 μM
Description: as §2

[6] = octanol/water partition coefficient; source not given; cited from earlier work
[7] = tested on: TNBC and lung cancer cells; set-up: method as in PMID 31898884, PMID 36702871; details: sub-cytotoxic concentrations of Ru-PIP; cited from earlier work
MDA-MB-231 cells [8] = assay: Clonogenic survival assay, MDA-MB-231 cells; format: cell-based; details: Homo sapiens; MDA-MB-231, clonogenic, 72 h treatment; read-out: IC50 values of OLAP, – Compound
Description: (§3) Cells were seeded at 1 × 10^3 cells/well in 6-well plates, allowed to adhere for 24 h, and treated as described in the main text. After treatment, solutions were removed, and cells were cultured in compound-free medium for 7–10 days to allow colony formation. Cells were then washed (1× PBS, twice), fixed (ice-cold 100% methanol, 15–20 min, 4 °C), and stained (0.5% crystal violet solution, 20 min). The staining solution was washed with water, and images were photographed with a digital camera. Individual colonies were counted using ImageJ software, and the survival fraction was determined (normalized to controls).

MDA-MB-231 cells [9] = details: 72 h, 10 µM
Description: Cells were seeded at 3 × 10^5 cells/well in 6-well plates, allowed to adhere for 24 h, and treated as described in the main text. After treatment, cells were trypsinized and washed with 1× PBS twice. This was followed by the addition of 500 μL of 1× binding buffer and 5 μL of Annexin V-FITC (Invitrogen). The cell-containing mixture was incubated for 20 min at RT. A total of 5 μL of PI (20 μg/mL) was added prior to flow cytometric analysis using a flow cytometer, and results were analyzed using NovoExpress software. For each sample, a minimum of 10,000 cells were counted.

MCF7 cells [10] = assay: Clonogenic survival assay, MCF7 cells; format: cell-based; details: Homo sapiens, 72 h treatment, read-out: IC50 values of OLAP, – Compound
Description: as §3

IC50 (MDA-MB-231 cells [3]; Homo sapiens, single agent): 25.1 ± 2.4 µM
IC50 (MCF7 cells [4]): 22.5 ± 4.1 µM
Structure (SMILES): COc1cc(/C=C/C(=O)CC(=O)/C=C/c2ccc(O)c(OC)c2)ccc1O [Curcumin, reference compound]
hatching rate [1]: neither 10 nor Curcumin impacted the hatching rate significantly
Synergy with Olaparib (CI scores of less than 0.9 considered synergistic) (MDA-MB-231 cells [2]): synergistic over most of the tested concentrations
day of complete disintegration of spheroids [5]: 6 days
inhibition of colony formation (MDA-MB-231R cells; MDA-MB-231R, compound 1 μM alongside Olaparib 0.1–100 μM, 72 h): retains the ability to inhibit colony formation in a similar manner to the parental MDA-MB-231 cells
IC50 (MCF10A cells): 37.4 ± 6 µM
day of complete disintegration of spheroids (MCF7 3D tumor spheroids): 9 days
Log P [6]: 4.12

Structure (SMILES): Cc1cc(C)c2nc3c4ccc[n+]5c4c4c(ccc[n+]4[Ru-4]546([n+]5ccccc5-c5cccc[n+]54)[n+]4ccccc4-c4cccc[n+]46)c3nc2c1 [Compound 5, [Ru(bpy)2(dmdppz)]^2+]
IC50 (MDA-MB-231 cells [3]; single agent): 75.1 ± 12.2 µM
fold shift = IC50 (−OLAP)/IC50 (+OLAP) (MDA-MB-231 cells [3]): <0.8

IC50 (MDA-MB-231 cells [3]; Homo sapiens, single agent): 4.4 ± 0.4 µM
fold shift = IC50 (−OLAP)/IC50 (+OLAP) (MDA-MB-231 cells [3]): 0.9
Structure (SMILES): C[C@@H]1COCCN1c1cc(C2([S@](C)(=N)=O)CC2)nc(-c2cc[nH]c3nccc2-3)n1 [Ceralasertib, reference compound]
Log P [6]: 1.91

Structure (SMILES): Cc1cc[n+]2c(c1)-c1cc(C)cc[n+]1[Ru-4]213([n+]2ccc(C)cc2-c2cc(C)cc[n+]21)[n+]1cccc2c4nc5cc(C)cc(C)c5nc4c4ccc[n+]3c4c21 [Compound 7, [Ru(4,4′dmb)2(dmdppz)]^2+]
Synergy with Olaparib (CI scores of less than 0.9 considered synergistic) (MDA-MB-231 cells [2]): additive relationship with Olaparib
IC50 (MDA-MB-231 cells [3]; single agent): 34.3 ± 0.5 µM
fold shift = IC50 (−OLAP)/IC50 (+OLAP) (MDA-MB-231 cells [3]): 2.3

Structure (SMILES): Cc1cc(C)c2nc3c4ccc[n+]5c4c4c(ccc[n+]4[Ru-4]546([n+]5cc(C)ccc5-c5ccc(C)c[n+]54)[n+]4cc(C)ccc4-c4ccc(C)c[n+]46)c3nc2c1 [Compound 6, [Ru(5,5′dmb)2(dmdppz)]^2+]
IC50 (MDA-MB-231 cells [3]; single agent): 87.4 ± 2.3 µM
fold shift = IC50 (−OLAP)/IC50 (+OLAP) (MDA-MB-231 cells [3]): 5.0

IC50 (MDA-MB-231 cells [3]; Homo sapiens, single agent): 0.46 ± 0.01 µM
fold shift = IC50 (−OLAP)/IC50 (+OLAP) (MDA-MB-231 cells [3]): 1.7
Structure (SMILES): CNCc1ccc(-c2cc(-c3nc(-c4ccc(S(=O)(=O)C(C)C)cc4)cnc3N)on2)cc1 [Berzosertib, reference compound]
Log P [6]: 3.16

IC50 (MDA-MB-231 cells [3]; single agent): 29.2 ± 3.7 µM
fold shift = IC50 (−OLAP)/IC50 (+OLAP) (MDA-MB-231 cells [3]): 3.7
Structure (SMILES): c1ccc(-c2nc3c4ccc[n+]5c4c4c(ccc[n+]4[Ru-4]546([n+]5cccc7ccc8ccc[n+]4c8c75)[n+]4cccc5ccc7ccc[n+]6c7c54)c3[nH]2)cc1 [Compound 3, [Ru(phen)2(PIP)]^2+]
Synergy with Olaparib (CI scores of less than 0.9 considered synergistic) (MDA-MB-231 cells [2]): additive relationship with Olaparib

IC50 (MDA-MB-231 cells [3]; single agent): 11.6 ± 3.2 µM
fold shift = IC50 (−OLAP)/IC50 (+OLAP) (MDA-MB-231 cells [3]): 6.8
Structure (SMILES): Oc1ccc(-c2nc3c4ccc[n+]5c4c4c(ccc[n+]4[Ru-4]546([n+]5cccc7ccc8ccc[n+]4c8c75)[n+]4cccc5ccc7ccc[n+]6c7c54)c3[nH]2)cc1 [Compound 4, [Ru(phen)2(H-PIP)]^2+]
Synergy with Olaparib (CI scores of less than 0.9 considered synergistic) (MDA-MB-231 cells [2]): additive relationship with Olaparib

Structure (SMILES): Cc1nc2c(O)cccc2c(=O)[nH]1 [NU1025]
Log P [6]: 0.47

Structure (SMILES): [Ru+2].c1ccc(-c2nc3c4cccnc4c4ncccc4c3[nH]2)cc1.c1ccc2nc3c4cccnc4c4ncccc4c3nc2c1.c1ccc2nc3c4cccnc4c4ncccc4c3nc2c1 [Ru-PIP, [Ru(dppz)2(PIP)]^2+]
increase in Olaparib potency [7]: > 300 fold

IC50 (MDA-MB-231 cells [3]; single agent): > 100 µM
fold shift = IC50 (−OLAP)/IC50 (+OLAP) (MDA-MB-231 cells [3]): >1.3
Structure (SMILES): [Ru+2].c1ccc(-c2ccccn2)nc1.c1ccc(-c2ccccn2)nc1.c1ccc(-c2nc3c4cccnc4c4ncccc4c3[nH]2)cc1 [Compound 1, [Ru(bpy)2(PIP)]^2+]

Structure (SMILES): O=C(c1cc(Cc2n[nH]c(=O)c3ccccc23)ccc1F)N1CCN(C(=O)C2CC2)CC1 [Olaparib]
pericardial edema (PE) ([1]; 96 hpf, 25 mg/L): 45.8% ± 17.7
spinal deformity (SD) ([1]; 96 hpf, 25 mg/L): 75.0% ± 23.6
yolk sac edema (YSE) ([1]; 96 hpf, 25 mg/L): 45.8% ± 29.5
IC50 (MDA-MB-231 cells [8]): > 10 µM
IC50 (MDA-MB-231 cells [3]; Homo sapiens, single agent): 80.9 ± 15 µM
SI MDA-MB-231 (IC50 MCF10A/IC50 cancer cell line), single agent (MDA-MB-231 cells [3]; single agent, 72 h): >1.2
SI MCF7 (IC50 MCF10A/IC50 cancer cell line), single agent (MCF7 cells [4]; 72 h): >1.4
IC50 (MCF7 cells [4]): 69.6 ± 6.3 µM
percentage of cells in quadrant Q3-1 (MDA-MB-231 cells [9]): 0.34%
percentage of cells in quadrant Q3-2 (apoptotic) (MDA-MB-231 cells [9]): 1.44%
percentage of cells in quadrant Q3-3 (MDA-MB-231 cells [9]): 82.66%
percentage of cells in quadrant Q3-4 (apoptotic) (MDA-MB-231 cells [9]): 15.56%
IC50 (MCF7 cells [10]): 2.72 ± 0.45 µM
level of resistance of MDA-MB-231R compared to parental MDA-MB-231 cells (MDA-MB-231R cells; clonogenic survival assay): 28 fold
IC50 (MCF10A cells): > 100 µM

Structure (SMILES): Nc1ccn([C@@H]2O[C@H](CO)[C@@H](O)C2(F)F)c(=O)n1 [gemcitabine hydrochloride, reference compound]
IC50 (MDA-MB-231 cells [3]; Homo sapiens, single agent): 1.6 ± 0.8 µM
fold shift = IC50 (−OLAP)/IC50 (+OLAP) (MDA-MB-231 cells [3]): 2.7

Structure (SMILES): N.N.[Cl][Pt][Cl] [cisplatin, reference compound]
IC50 (MDA-MB-231 cells [3]; single agent): 35.3 ± 5.5 µM

IC50 (MDA-MB-231 cells [3]; Homo sapiens, single agent): 12.1 ± 3 µM
Structure (SMILES): O=c1[nH]cc(F)c(=O)[nH]1 [Fluorouracil, reference compound]

IC50 (MDA-MB-231 cells [3]; Homo sapiens, single agent): > 100 µM
Structure (SMILES): O=c1c(O)c(-c2ccc(O)c(O)c2)oc2cc(O)cc(O)c12 [Quercetin, reference compound]
